Results: patent publication EP3381898A1, “SYMMETRICAL TRIS-ARYL-AMIDE DERIVATIVES AND THEIR USE AS ANTI-HEPARANASE” (priority 2017, dated 2018)

What was measured:
[1] = tested on: HT1080 (human fibrosarcoma); experiment: Cell adhesion assay on matrigel coated wells; format: cell-based; conditions: 2.5 µM, percent of adhesion with respect to the control (100%)
Method: (§1) Cell surface, non-integrin molecules such as heparan sulfate proteoglycans (HSPGs) may be involved in the regulation of early adhesive stages of cell-ECM interactions. A cell adhesion assay has been employed to determine if the newly designed heparanase inhibitors were able to interfere with adhesion properties of cancer cells.
(§2) HT1080 (human fibrosarcoma) and U87MG (human glioblastoma astrocytoma) cells were treated for 18-20 h with test compounds in complete medium supplemented with 10% FCS. Then cells were collected, washed in complete medium, and added to matrigel coated wells in triplicate, at previously identified optimal seeding density, and incubated at 37 °C in complete medium for times ranging from 15 minutes to 4h, according to the cell line. After incubation, the wells were washed three times with serum-free medium and the remaining firmly attached cells were stained with crystal-violet 0.1%. Optical density was measured at 560 nm by Victor 3 (Perkin-Elmer) plate analyzer. Each experiment was repeated three times.
(§3) Table 3. […] In Invasion assay, data were expressed as the percent invasion (range) with respect to cell migration through uncoated insert membrane. In Adhesion assay, data were expressed as the percent of adhesion with respect to the control (100%).

[2] = tested on: U87MG (human glioblastoma astrocytoma); experiment: Cell adhesion assay on matrigel coated wells; format: cell-based; conditions: 2.5 µM, percent of adhesion with respect to the control (100%)
Method: as §1, §2, §3

[3] = tested on: genes encoding for proangiogenic factors; experiment: Real-Time Quantitative PCR in HT1080 cells, summary statement for all factors; format: cell-based, human; conditions: 2.5 µM, result in words
Method: To evaluate the effect of heparanase inhibitors on the tumor transcription of genes encoding for proangiogenic factors, such as FGF1/2, VEGF, MMP-9, HSPE-1, the relative mRNA levels were analyzed by quantitative Real-Time Quantitative PCR.
To perform the assay, HT1080 (human fibrosarcoma) cells were cultured in complete medium containing 10%FCS (fetal calf serum). Cells were plated in 24-well plates and treated at fixed concentration (i.e., highest non-toxic concentration) of test compounds. After 24 h, cells were detached, collected and total RNA extracted by RNeasy Mini Kit (QIAGEN). Following reverse transcription step, FGF1/2, VEGF, MMP-9, HSPE-1 mRNA levels, were quantified by qPCR using the advanced Universal SYBR Green Supermix (Bio Rad) and ABI PRISM 7900HT Thermal Cycler System (Perkin Elmer), according to the manufacturer's instructions. Appropriate no-RT and non-template controls were included in each 96-well PCR reaction, and dissociation analysis was performed at the end of each run to confirm the specificity of the reaction. Relative levels of RNA were calculated using the ddCt method. Standard curve and sample data were run in duplicate. In Table 4 a mean value is reported. […]

[4] = tested on: U2OS (human osteosarcoma); experiment: Matrigel cell invasion assay; format: cell-based; conditions: Homo sapiens, read-out: Invasion Assay Inhibition U2OS
Method: (§4) Heparanase inhibitors were then evaluated for their activity on the invasive potential of HT1080 (human fibrosarcoma), U87MG (human glioblastoma astrocytoma) and U2OS (human osteosarcoma) human cell lines, using the Matrigel cell invasion assay which allows to assess the cell invasion ability of malignant and normal cells.
(§5) Invasion assay was performed using BioCoat cell culture inserts (BioCoat 8.0µm PET Membrane 24 Well Permeable Supports, Corning). Filters were coated with 100 µl of 300 µg/ml Matrigel dissolved in coating buffer (0.01 M Tris pH 8.0, 0.7% NaCl) (Becton-Dickinson Sciences). DMEM (Dulbecco's Modified Eagle's Medium) containing 5% FBS was added to the lower chambers. Cells were pre-treated with heparanase inhibitors for 24 h, detached and added to the upper chambers in media containing the inhibitors. Cells were allowed to invade for 24 h at 37°C in a CO2 incubator and then unmigrated cells were removed from the upper chamber with a cotton swab. The invading cells were fixed, stained with 0.1% crystal violet for 10 min at room temperature, photographed and counted under inverted microscope.
(§6) Test compounds were analyzed at fixed concentration (2.5 µM) for several fields, in duplicates. Activity of test compounds was compared to the reference compound. Activity of most interesting compound was confirmed in a second cell invasion assay. Data were expressed as the percent invasion with respect to cell migration through uncoated insert membrane.
as §3

[5] = tested on: HT1080 (human fibrosarcoma); experiment: Matrigel cell invasion assay; format: cell-based; conditions: HT-1080, read-out: Invasion Assay Inhibition HT1080
Method: as §4, §5, §6, §3

[6] = tested on: U87MG (human glioblastoma astrocytoma); experiment: Matrigel cell invasion assay; format: cell-based; conditions: Homo sapiens, U-87 MG, read-out: Invasion Assay Inhibition U87MG
Method: as §4, §5, §6, §3

In the case of `Cn1cc(NC(=O)c2ccc(Oc3ccc(C(=O)Nc4cc(C(=O)Nc5cccc(CC(=O)N[C@@H](Cc6ccccc6)C(=O)O)c5)n(C)c4)cc3)cc2)cc1C(=O)Nc1cccc(CC(=O)N[C@@H](Cc2ccccc2)C(=O)O)c1` [Compound 36e, (2S,2'S)-2,2'-((2,2'-(((4,4'-((4,4'-Oxybis(benzoyl))bis(azanediyl))bis(1-methyl-1H-pyrrole-2,2'-carbonyl))bis(azanediyl))bis(3,1-phenylene))bis(acetyl))bis(azanediyl))bis(3-phenylpropanoic acid)], the “Adhesion Assay (%) HT1080” value [1] is reported as 91.2%, the “Adhesion Assay (%) U87MG” value [2] is reported as 73.0% and the “inhibition of genes expression encoding for proangiogenic factors” value [3] is reported as “significant inhibition”. The inhibition at 2.5 µM [4] was under 50%, the inhibition at 2.5 µM [5] was 50 to 90% and the inhibition at 2.5 µM [6] was 50 to 90%.
